This is an account of results in US12501900B2, “Heterocyclyl pyridazine as fungicidal compounds” (Bayer Aktiengesellschaft, priority 2018, dated 2025).

The subject of data set [1] is Colletotrichum lindemuthianum. The experiment in a line: In vivo preventive test on Colletotrichum lindemuthianum (leaf spot on bean). The note with it: 168 h, 500 ppm of active ingredient, preventive spray on bean, evaluated 7 days after inoculation, read-out: efficacy. The procedure: Example: In Vivo Preventive Test on Colletotrichum lindemuthianum (Leaf Spot on Bean)
(§1) • Solvent: 5% by volume of Dimethyl sulfoxide • 10% by volume of Acetone • Emulsifier: 1 μl of Tween® 80 per mg of active ingredient
(§2) The active ingredients were made soluble and homogenized in a mixture of Dimethyl sulfoxide/Acetone//Tween®80 and then diluted in water to the desired concentration.
The young plants of bean were treated by spraying the active ingredient prepared as described above. Control plants were treated only with an aqueous solution of Acetone/Dimethyl sulfoxide/Tween® 80.
After 24 hours, the plants were contaminated by spraying the leaves with an aqueous suspension of Colletotrichum lindemuthianum spores. The contaminated bean plants were incubated for 24 hours at 20° C. and at 100% relative humidity and then for 6 days at 20° C. and at 90% relative humidity.
The test was evaluated 7 days after the inoculation. 0% means an efficacy which corresponds to that of the control plants while an efficacy of 100% means that no disease was observed.

The subject of another data set is Alternaria alternata. The data set is described as follows: Alternaria alternata in vitro cell test. In kind it is cell-based. The note with it: 120 h, 20 ppm of active ingredient, liquid culture, 5 days incubation, read-out: efficacy (inhibition of fungal growth). The procedure: (§3) Example: Alternaria alternata In Vitro Cell Test • Solvent: DMSO • Culture medium: 14.6 g anhydrous D-glucose (VWR), 7.1 g Mycological Peptone (Oxoid), 1.4 g granulated Yeast Extract (Merck), QSP 1 liter • Inoculum: spores suspension Fungicides were solubilized in DMSO and the solution used to prepare the required range of concentrations. The final concentration of DMSO used in the assay was ≤1%. A spore suspension of A. alternata was prepared and diluted to the desired spore density. Fungicides were evaluated for their ability to inhibit spore germination and mycelium growth in liquid culture assay. The compounds were added in the desired concentration to the culture medium with spores. After 5 days incubation, fungi-toxicity of compounds was determined by spectrometric measurement of mycelium growth. Inhibition of fungal growth was determined by comparing the absorbance values in wells containing the fungicides with the absorbance in control wells without fungicides.

A further data set relates to Sphaerotheca fuliginea. The data set is described as follows: In vivo preventive test on Sphaerotheca fuliginea (powdery mildew on cucurbits). The note with it: Podosphaera fuliginea, 192 h; 500 ppm of active ingredient; preventive spray on gherkin; evaluated 8 days after inoculation; read-out: efficacy. The protocol:
Example: In Vivo Preventive Test on Sphaerotheca fuliginea (Powdery Mildew on Cucurbits)
as §1, §2
The young plants of gherkin were treated by spraying the active ingredient prepared as described above. Control plants were treated only with an aqueous solution of Acetone/Dimethyl sulfoxide/Tween® 80.
After 24 hours, the plants were contaminated by spraying the leaves with an aqueous suspension of Sphaerotheca fuliginea spores. The contaminated gherkin plants were incubated for 8 days at 20° C. and at 70-80% relative humidity.
The test was evaluated 8 days after the inoculation. 0% means an efficacy which corresponds to that of the control plants while an efficacy of 100% means that no disease was observed.

A further data set has as its system Alternaria brassicae. The experiment in a line: In vivo preventive test on Alternaria brassicae (leaf spot on radish or cabbage). The conditions noted are these: 144 h, 500 ppm of active ingredient, preventive spray on radish or cabbage, evaluated 6 days after inoculation, read-out: efficacy. The protocol: Example: In Vivo Preventive Test on Alternaria brassicae (Leaf Spot on Radish or Cabbage)
as §1, §2
The young plants of radish or cabbage were treated by spraying the active ingredient prepared as described above. Control plants were treated only with an aqueous solution of Acetone/Dimethyl sulfoxide/Tween® 80.
After 24 hours, the plants were contaminated by spraying the leaves with an aqueous suspension of Alternaria brassicae spores. The contaminated radish or cabbage plants were incubated for 6 days at 20° C. and at 100% relative humidity.
The test was evaluated 6 days after the inoculation. 0% means an efficacy which corresponds to that of the control plants while an efficacy of 100% means that no disease was observed.

The test system of data set [2] is Colletotrichum lindemuthianum. The data set is described as follows: Colletotrichum lindemuthianum in vitro cell test. Format: cell-based. The conditions noted are these: 144 h, 20 ppm of active ingredient, liquid culture, 6 days incubation, read-out: efficacy (inhibition of fungal growth). The procedure: as §3, with “Example: Colletotrichum lindemuthianum” for “Example: Alternaria alternata”, “of C. lindemuthianum” for “of A. alternata”, “inhibit spores” for “inhibit spore”, “After 6” for “After 5”

For a further data set, the system named is Pyrenophora teres. The experiment in a line: In vivo preventive test on Pyrenophora teres (net blotch on barley). The note with it: 240 h, 500 ppm of active ingredient, preventive spray on barley, evaluated 10 days after inoculation, read-out: efficacy. The protocol:
Example: In Vivo Preventive Test on Pyrenophora teres (Net Blotch on Barley)
as §1, §2
The young plants of barley were treated by spraying the active ingredient prepared as described above. Control plants were treated only with an aqueous solution of Acetone/Dimethyl sulfoxide/Tween®80.
After 24 hours, the plants were contaminated by spraying the leaves with an aqueous suspension of Pyrenophora teres spores. The contaminated barley plants were incubated for 48 hours at 20° C. and at 100% relative humidity and then for 8 days at 20° C. and at 70-80% relative humidity.
The test was evaluated 10 days after the inoculation. 0% means an efficacy which corresponds to that of the control plants while an efficacy of 100% means that no disease was observed.

A further data set relates to Botrytis cinerea. The data set is described as follows: In vivo preventive test on Botrytis cinerea (grey mould). The note with it: 500 ppm of active ingredient, preventive spray on gherkin or cabbage, evaluated 4 to 5 days after inoculation, read-out: efficacy. The protocol:
Example: In Vivo Preventive Test on Botrytis cinerea (Grey Mould)
as §1, §2
The young plants of gherkin or cabbage were treated by spraying the active ingredient prepared as described above. Control plants were treated only with an aqueous solution of Acetone/Dimethyl sulfoxide/Tween® 80.
After 24 hours, the plants were contaminated by spraying the leaves with an aqueous suspension of Botrytis cinerea spores. The contaminated gherkin plants were incubated for 4 to 5 days at 17° C. and at 90% relative humidity. The contaminated cabbage plants were incubated for 4 to 5 days at 20° C. and at 100% relative humidity.
The test was evaluated 4 to 5 days after the inoculation. 0% means an efficacy which corresponds to that of the control plants while an efficacy of 100% means that no disease was observed.

A short description of data set [3]: Measurement of LogP values by HPLC on reversed phase columns (EEC directive 79/831 Annex V.A8), methods [a], [b], [c]. In kind it is physicochemical. The note with it: HPLC on reversed phase column, method [a]; read-out: Log P. The procedure: Measurement of Log P values as provided herein was performed according to EEC directive 79/831 Annex V.A8 by HPLC (High Performance Liquid Chromatography) on reversed phase columns with the following methods: • ^[a]
If more than one Log P value is available within the same method, all the values are given and separated by “+”.
Lambda-max-values were determined using UV-spectra from 200 nm to 400 nm and the peak values of the chromatographic signals

The inhibition is how much of the control response was suppressed. On to `Cc1cc(C2=NOCC(c3ccc(Cl)cc3)N2)c(Oc2cccc(C(F)(F)F)c2)nn1` (racemic) [I-040, rac-5-(4-chlorophenyl)-3-[6-methyl-3-[3-(trifluoro-methyl)phenoxy]pyridazin-4-yl]-5,6-dihydro-4H-1,2,4-oxadiazine], for which the pest or weed control at 500 ppm is 90 to 100% in data set [1]; 80 to 89% with Sphaerotheca fuliginea; 90 to 100% with Alternaria brassicae; 80 to 89% with Pyrenophora teres; 90 to 100% in the data set with Botrytis cinerea. For the same compound, the inhibition at 20 ppm (in the data set on Alternaria alternata; in data set [2]) was 90 to 100% throughout. In addition, in data set [3], the chromatographic logP amounted to 3.29.

In the case of `Cc1ccc(CC2CON=C(c3c(Oc4cccc(C(F)(F)F)c4)nnc(Cl)c3NC3CC3)N2)c(C)c1` (racemic) [I-041, 3-chloro-N-cyclopropyl-5-[rac-5-[(2,4-dimethylphenyl)methyl]-5,6-dihydro-4H-1,2,4-oxadiazin-3-yl]-6-[3-(trifluoromethyl)phenoxy]pyridazin-4-amine], the inhibition at 20 ppm (in the data set on Alternaria alternata; in data set [2]) was 90 to 100% throughout. The pest or weed control at 500 ppm with Sphaerotheca fuliginea, in the data set on Alternaria brassicae and with Botrytis cinerea was 90 to 100% in each case. In data set [3], the chromatographic logP came out at 4.03.

For the compound `Cc1ccc(CC2CON=C(c3c(Oc4cccc(C5CC5)c4F)nnc(Cl)c3C)N2)c(C)c1` (racemic) [I-058, rac-3-[6-chloro-3-(3-cyclopropyl-2-fluoro-phenoxy)-5-methyl-pyridazin-4-yl]-5-[(2,4-dimethylphenyl)methyl]-5,6-dihydro-4H-1,2,4-oxadiazine], the pest or weed control at 500 ppm in data set [1] lay in the range of 90 to 100%; with Sphaerotheca fuliginea, 90 to 100%; in the data set on Alternaria brassicae, 90 to 100%; with Pyrenophora teres, 80 to 89%; with Botrytis cinerea, 90 to 100%. For the same compound, the inhibition at 20 ppm (in the data set on Alternaria alternata; in data set [2]) was 90 to 100% throughout. In addition, the chromatographic logP in data set [3] was found to be 4.3.

Take `Cc1cc(C2=NOCCC(c3ccc4c(ccn4C)c3)N2)c(Oc2cccc(C(F)(F)F)c2)nn1` (racemic) [I-062, rac-5-(1-methylindol-5-yl)-3-[6-methyl-3-[3-(trifluoro-methyl)phenoxy]pyridazin-4-yl]-4,5,6,7-tetrahydro-1,2,4-oxadiazepine]: the pest or weed control at 500 ppm (in data set [1]; with Sphaerotheca fuliginea; in the data set with Alternaria brassicae; with Botrytis cinerea) was 90 to 100% each time. Besides, the chromatographic logP in data set [3] was found to be 1.92.

For `Cc1ccc(CC2CON=C(c3c(Oc4cccc(C(F)(F)F)c4)nnc(Cl)c3I)N2)c(C)c1` (racemic) [I-065, rac-3-[6-chloro-5-iodo-3-[3-(trifluoromethyl)phenoxy]pyridazin-4-yl]-5-[(2,4-dimethylphenyl)methyl]-5,6-dihydro-4H-1,2,4-oxadiazine], the pest or weed control at 500 ppm lay in the range of 90 to 100% in data set [1], 90 to 100% in the data set on Alternaria brassicae and 70 to 79% in the data set on Pyrenophora teres. Moreover, the inhibition at 20 ppm (with Alternaria alternata; in data set [2]) was 90 to 100% in each case. In addition, the chromatographic logP in data set [3] amounted to 4.37.

In the case of `Cc1ccc(CC2CCN=C(c3cc(Cl)nnc3Oc3cccc(C(F)(F)F)c3)N2)c(C)c1` (racemic) [I-117, 6-chloro-4-[rac-6-[(2,4-dimethylphenyl)methyl]-1,4,5,6-tetrahydropyrimidin-2-yl]-3-[3-(trifluoromethyl)phenoxy]pyridazine], the pest or weed control at 500 ppm (in data set [1]; in the data set on Alternaria brassicae; in the data set with Botrytis cinerea) was 90 to 100% each time. The inhibition at 20 ppm (with Alternaria alternata; in data set [2]) was 90 to 100% in each case. Besides, the chromatographic logP in data set [3] worked out at 2.56.

For the compound `Cc1ccc(OCC2CON=C(c3cc(C)nnc3Oc3cccc(C(F)(F)F)c3)N2)c(C)c1` (racemic) [I-144, rac-5-[(2,4-dimethylphenoxy)methyl]-3-[6-methyl-3-[3-(trifluoromethyl)phenoxy]pyridazin-4-yl]-5,6-dihydro-4H-1,2,4-oxadiazine], the inhibition at 20 ppm (in the data set on Alternaria alternata; in data set [2]) was 90 to 100% throughout. The results for the pest or weed control at 500 ppm with Sphaerotheca fuliginea, in the data set on Alternaria brassicae and with Botrytis cinerea were 70 to 79%, 90 to 100% and 90 to 100%, respectively. Moreover, in data set [3], the chromatographic logP was found to be 3.98.

With `COCCSc1nnc(Oc2cccc(C(F)(F)F)c2)c(C2=NOCC(Cc3ccc(C)cc3C)N2)c1C` (racemic) [I-187, rac-5-[(2,4-dimethylphenyl)methyl]-3-[6-(2-methoxyethylsulfanyl)-5-methyl-3-[3-(trifluoromethyl)phenoxy]pyridazin-4-yl]-5,6-dihydro-4H-1,2,4-oxadiazine], the inhibition at 20 ppm (in the data set on Alternaria alternata; in data set [2]) was 90 to 100% throughout. The pest or weed control at 500 ppm with Sphaerotheca fuliginea, in the data set on Alternaria brassicae and in the data set with Botrytis cinerea was 90 to 100% each time. Moreover, the chromatographic logP in data set [3] came to 4.51.
